Data published in patent US7566530B2 (priority 2004, dated 2009).
Where two headings read alike, the source gives them in different places.

Experiments:
PrP^sc = type: biochemical, bovine; settings: for location of PrP^sc bands (starting supernatant or pellet) after centrifugation: 2.5, 5, 10 mg added to 50 μl PrP^sc sample, 37° C. 1 h; for location of PrP^sc bands (starting supernatant or pellet) after centrifugation / crosslinking and precipitation of PrP: FIG. 4; for crosslinking and precipitation of PrP: simple centrifuge, no ultracentrifugation
PrP^res = type: biochemical, human

NCCCNCCCN [bis-3-aminopropylamine] was tested, and the “apparent molecular mass of the prion protein bands compared to a control without molecule” value (PrP^sc; 130-1040 μg added to 5 μl PrP^sc, 30 min room temperature, pellet supernatant, FIG. 6) was “induces an increase in the apparent molecular mass of the 3 prion protein bands” and the “precipitation of the prion protein on centrifugation” value (PrP^sc; 130-1040 μg, 12 000 rpm 5 min, FIG. 6) was “the prion protein precipitates”.

For [H]/N=C(/N)N[C@H]1[C@H](O)[C@@H](O)[C@H](O[C@@H]2O[C@@H](C)[C@](O)(C=O)[C@H]2O[C@@H]2O[C@@H](CO)[C@H](O)[C@@H](O)[C@@H]2NC)[C@@H](N/C(N)=N\[H])[C@@H]1O [streptomycin], the “location of PrP^sc bands (starting supernatant or pellet) after centrifugation” value (PrP^sc; 12 000 rpm 5 min) was “the PrP^sc material is found in the pellet” and the “crosslinking and precipitation of PrP” value (PrP^sc) was “induces crosslinking of PrP which allows complete precipitation thereof”.

In the case of NCCNCCNCCN [triethylenetetramine], the “apparent molecular mass of the prion protein bands compared to a control without molecule” value (PrP^sc; 105-840 μg TET added to 5 μl PrP^sc (250 μg brain), supernatant, FIG. 5) is reported as “induces an increase in the apparent molecular mass of the prion protein” and the “crosslinking of PrP versus dose” value (PrP^sc; 105-840 μg TET, FIG. 5) is reported as “a crosslinking of PrP proportional to the dose of TET”.

heparin was tested, and the “sensitivity and specificity of detection of PrP^res of lymphoid origin in blood samples” value (PrP^res) was “confirms the sensitivity and the specificity of detection of PrP^res”.

With CN[C@@H]1[C@H](O[C@H]2[C@H](O[C@H]3[C@H](O)[C@@H](O)[C@H](NC(=N)N)[C@@H](O)[C@@H]3NC(=N)N)O[C@@H](C)[C@]2(O)CO)O[C@@H](CO)[C@H](O)[C@H]1O [dihydrostreptomycin sesquisulfate] the “location of PrP^sc bands (starting supernatant or pellet) after centrifugation” value (PrP^sc; 12 000 rpm 5 min) was “the PrP^sc material is found in the pellet” and the “crosslinking and precipitation of PrP” value (PrP^sc) was “induces crosslinking of PrP which allows complete precipitation thereof”.
